The numbers were not newly measured in patent US20040202705A1 (priority 1999, published 2004), which cites them from elsewhere.

The conditions of the data set: human, in vivo.

Turning to `Nc1c2c(nc3ccccc13)CCCC2` [Tacrine], the “Patients with reversible hepatotoxicity” value is reported as “approximately 30%”.
